Assay results published in EP0556720B1, “5-Aminoflavone derivatives” (KYOWA HAKKO KOGYO CO., LTD., priority 1992, dated 1993).
Structures can show the parent of a compound that is named as a salt.

What was measured:
HeLaS3 cells = test: Human uterine cervix carcinoma (HeLaS3) growth inhibition test, neutral red staining; type: cell-based; conditions: HeLa S3, 72 hours culture with sample, absorbance at 550 nm
Experimental: Human uterine cervix carcinoma (HeLaS3) growth inhibition test;
Each 0.1 ml of HeLaS3 cells which had been prepared to 3 x 10^4/ml using a medium (referred to as Medium A hereinafter) consisted of MEM medium, 2 mM glutamine and 10% bovine fetal serum was distributed in each well of 96 well-microtiter plate. The plate was cultured at 37 °C for 20 hours in a CO2 gas incubator, each 0.05 ml of samples (test compounds) which had been appropriately diluted with Medium A was added thereto and the mixture was cultured at 37 °C for 72 hours in a CO2 gas incubator. Supernatant was removed, each 0.1 ml of Medium A containing 0.02% neutral red was added to the residue, the mixture was cultured at 37 °C for 1 hour in a CO2 gas incubator and the cells were stained. Supernatant was removed and the residue was washed once with saline. Then, the pigment was extracted with 0.001N hydrochloric acid/30% ethanol and the absorbance at 550 nm was measured with a microplatereader.

MCF-7 cells = test: Human mammary cancer (MCF-7) growth inhibition test, neutral red staining; type: cell-based; conditions: MCF7, medium with 10^-8M estradiol, 72 hours culture with sample
Experimental: Human mammary cancer (MCF-7) growth inhibition test;
Each 0.1 ml of MCF-7 cells which had been prepared to 5 x 10^4/ml using a medium (referred to as Medium B hereinafter) prepared by adding 10% bovine fetal serum, 10^-8M estradiol (manufactured by Sigma), 100 units/ml penicillin and 100 µg/ml streptomycin to medium RPMI1640 was distributed in each well of 96 well-microtiter plate. The plate was cultured at 37 °C for 20 hours in a CO2 gas incubator, each 0.05 ml of samples (test compounds) which had been appropriately diluted with Medium B was added thereto and the mixture was cultured at 37 °C for 72 hours in a CO2 gas incubator. Supernatant was removed, each 0.1 ml of Medium B containing 0.02% neutral red was added to the residue, the mixture was cultured at 37 °C for 1 hour in a CO2 gas incubator and the cells were stained. IC50 was calculated according to the same manner as that in Test 2.

| SMILES | IC50 (HeLaS3 cells) [µM] | IC50 (MCF-7 cells) [µM] |
| --- | --- | --- |
| Nc1c(F)cc(F)c2oc(-c3ccc(NCCCCCCn4ccnc4)c(F)c3)cc(=O)c12 [Compound 52, 5-Amino-6,8-difluoro-2-[3-fluoro-4-[6-(imidazol-1-yl)hexylamino]phenyl]-4H-1-benzopyran-4-one] | 4.4 | 2 |
| Nc1c(F)cc(F)c2oc(-c3ccc(NCCCCCCN4CCOCC4)c(F)c3)cc(=O)c12 [Compound 55, 5-Amino-6,8-difluoro-2-[3-fluoro-4-(6-morpholinohexylamino)phenyl]-4H-1-benzopyran-4-one] | 11 |  |
| CN(C)c1ccc(-c2cc(=O)c3c(NCCCCCCN)c(F)cc(F)c3o2)cc1F [Compound 65, 5-(6-Aminohexylamino)-6,8-difluoro-2-[4-(N,N-dimethyl)amino-3-fluorophenyl]-4H-1-benzopyran-4-one] | 7 |  |
| NCCCNc1ccc(-c2cc(=O)c3c(N)ccc(F)c3o2)cc1 [Compound 20, 5-Amino-2-[4-[(3-aminopropyl)amino]phenyl]-8-fluoro-4H-1-benzopyran-4-one] | 9.3 | 0.094 |
| Nc1ccc(-c2cc(=O)c3c(N)ccc(F)c3o2)cc1 [Compound 10, 5-Amino-2-(4-aminophenyl)-8-fluoro-4H-1-benzopyran-4-one] | 21 | 0.25 |
| C=CCCCCNc1c(F)cc(F)c2oc(-c3ccc(NC)c(F)c3)cc(=O)c12 [Compound 77, 6,8-Difluoro-2-(3-fluoro-4-methylaminophenyl)-5-(5-hexenylamino)-4H-1-benzopyran-4-one] | 11 |  |
| Nc1ccc(-c2cc(=O)c3c(N)c(F)ccc3o2)cc1 [Compound 8, 5-Amino-2-(4-aminophenyl)-6-fluoro-4H-1-benzopyran-4-one] |  | 0.14 |
| CCCCCCNc1c(F)cc(F)c2oc(-c3ccc(NCC(=O)O)c(F)c3)cc(=O)c12 [Compound 75, 2-(4-Carboxymethylamino-3-fluorophenyl)-6,8-difluoro-5-hexylamino-4H-1-benzopyran-4-one] | 16 |  |
| CN(C)c1ccc(-c2cc(=O)c3c(NCCCCCCN4CCCC4)c(F)cc(F)c3o2)cc1F [Compound 63, 6,8-Difluoro-2-[4-(N,N-dimethyl)amino-3-fluorophenyl]-5-[6-(pyrrolidin-1-yl)hexylamino]-4H-1-benzopyran-4-one] | 7 |  |
| CCCCCCNc1c(F)cc(F)c2oc(-c3ccc(N(C)C)c(F)c3)cc(=O)c12 [Compound 58, 6,8-Difluoro-2-[4-(N,N-dimethyl)amino-3-fluorophenyl]-5-hexylamino-4H-1-benzopyran-4-one] |  | 0.34 |
| COCCCCCCNc1c(F)cc(F)c2oc(-c3ccc(N(C)C)c(F)c3)cc(=O)c12 [Compound 61, 6,8-Difluoro-2-[4-(N,N-dimethyl)amino-3-fluorophenyl]-5-(6-methoxyhexylamino)-4H-1-benzopyran-4-one] |  | 0.63 |
| CCCCCCNc1c(F)cc(F)c2oc(-c3ccc(NCC(=O)OCC)c(F)c3)cc(=O)c12 [Compound 74, 6,8-Difluoro-2-(4-ethoxycarbonylmethylamino-3-fluorophenyl)-5-hexylamino-4H-1-benzopyran-4-one] | 12 | 9.2 |
| Nc1ccc(-c2cc(=O)c3c(N)ccc(Br)c3o2)cc1 [Compound 5, 5-Amino-2-(4-aminophenyl)-8-bromo-4H-1-benzopyran-4-one] | 6.1 |  |
| CN(C)CCCCCCNc1c(F)cc(F)c2oc(-c3ccc(N(C)C)c(F)c3)cc(=O)c12 [Compound 62, 6,8-Difluoro-2-[4-(N,N-dimethyl)amino-3-fluorophenyl]-5-[6-(N',N'-dimethylamino)hexylamino]-4H-1-benzopyran-4-one] | 7.1 |  |
| Nc1ccc(-c2cc(=O)c3c(N)ccc(Cl)c3o2)cc1 [Compound 2, 5-Amino-2-(4-aminophenyl)-8-chloro-4H-1-benzopyran-4-one] | 3.2 | 0.37 |
| CN(C)c1ccc(-c2cc(=O)c3c(NCCCCCCO)c(F)cc(F)c3o2)cc1F [Compound 60, 6,8-Difluoro-2-[4-(N,N-dimethyl)amino-3-fluorophenyl]-5-(6-hydroxyhexylamino)-4H-l-benzopyran-4-one] |  | 0.34 |
| CCCCCNc1c(F)cc(F)c2oc(-c3ccc(NCCCN)c(F)c3)cc(=O)c12 [Compound 79, 2-[4-(3-Aminopropylamino)-3-fluorophenyl]-6,8-difluoro-5-pentylamino-4H-1-benzopyran-4-one] | 7.5 |  |
| CN(C)c1ccc(-c2cc(=O)c3c(NCCCCCCn4ccnc4)c(F)cc(F)c3o2)cc1F [Compound 64, 6,8-Difluoro-2-[4-(N,N-dimethyl)amino-3-fluorophenyl]-5-[6-(imidazol-1-yl)hexylamino]-4H-1-benzopyran-4-one] | 3 |  |

Results, then the compound that gave them:

| IC50 (HeLaS3 cells) [µM] | IC50 (MCF-7 cells) [µM] | SMILES |
| --- | --- | --- |
|  | 0.73 | Nc1c(F)cc(F)c2oc(-c3ccc(NCCCCCC(=O)O)c(F)c3)cc(=O)c12 [Compound 57, Sodium salt of 5-amino-2-[4-(5-carboxypentylamino)-3-fluorophenyl]-6,8-difluoro-4H-1-benzopyran-4-one] |
| 5 |  | Nc1c(F)cc(F)c2oc(-c3ccc(NCCN4CCCC4)c(F)c3)cc(=O)c12 [Compound 41, 5-Amino-6,8-difluoro-2-[3-fluoro-4-[2-(pyrrolidin-1-yl)ethylamino]phenyl]-4H-1-benzopyran-4-one] |
|  | 27 | Nc1ccc(-c2cc(=O)c3c(N)c(Br)cc(Br)c3o2)cc1 [Compound 6, 5-Amino-2-(4-aminophenyl)-6,8-dibromo-4H-1-benzopyran-4-one] |
|  | 0.61 | Nc1c(Br)cc(-c2cc(=O)c3c(N)c(F)cc(F)c3o2)cc1Br [Compound 36, 5-Amino-2-(4-amino-3,5-dibromophenyl)-6,8-difluoro-4H-1-benzopyran-4-one] |
| 12 |  | CC(C)CCCNc1c(F)cc(F)c2oc(-c3ccc(N)c(F)c3)cc(=O)c12 [Compound 71, 2-(4-Amino-3-fluorophenyl)-6,8-difluoro-5-(4-methylpentylamino)-4H-1-benzopyran-4-one] |
| 14 | 0.039 | NCCCNc1ccc(-c2cc(=O)c3c(N)c(F)cc(F)c3o2)cc1F [Compound 30, 5-Amino-2-[4-(3-aminopropylamino)-3-fluorophenyl]-6,8-difluoro-4H-1-benzopyran-4-one] |
| 6.1 | 5.9 | Nc1c(F)cc(F)c2oc(-c3ccc(NCCCCCCN4CCCC4)c(F)c3)cc(=O)c12 [Compound 54, 5-Amino-6,8-difluoro-2-[3-fluoro-4-[6-(pyrrolidin-1-yl)hexylamino]phenyl]-4H-1-benzopyran-4-one] |
|  | 0.11 | COCCCNc1ccc(-c2cc(=O)c3c(N)c(F)cc(F)c3o2)cc1F [Compound 46, 5-Amino-6,8-difluoro-2-[3-fluoro-4-(3-methoxypropylamino)phenyl]-4H-1-benzopyran-4-one] |
| 9.4 |  | CCCCCCNc1c(F)cc(F)c2oc(-c3ccc(N)c(F)c3)cc(=O)c12 [Compound 67, 2-(4-Amino-3-fluorophenyl)-6,8-difluoro-5-hexylamino-4H-1-benzopyran-4-one] |
| 12 |  | CN(C)c1ccc(-c2cc(=O)c3c(N)c(F)cc(F)c3o2)cc1F [Compound 38, 5-Amino-6,8-difluoro-2-[4-(N,N-dimethylamino)-3-fluorophenyl]-4H-1-benzopyran-4-one] |
|  | 0.23 | CN(C)CCNc1ccc(-c2cc(=O)c3c(N)c(F)cc(F)c3o2)cc1F [Compound 40, 5-Amino-2-[4-[2-(N',N'-dimethylamino)ethylamino]-3-fluorophenyl]-6,8-difluoro-4H-1-benzopyran-4-one] |
|  | 6 | CC(Cl)CCCCNc1c(F)cc(F)c2oc(-c3ccc(N)c(F)c3)cc(=O)c12 (centres unmarked) [Compound 69, 2-(4-Amino-3-fluorophenyl)-5-(5-chlorohexylamino)-6,8-difluoro-4H-1-benzopyran-4-one] |
|  | 0.17 | Nc1c(Cl)cc(-c2cc(=O)c3c(N)c(F)cc(F)c3o2)cc1Cl [Compound 35, 5-Amino-2-(4-amino-3,5-dichlorophenyl)-6,8-difluoro-4H-1-benzopyran-4-one] |
|  | 6.1 | Nc1c(F)cc(F)c2oc(-c3ccc(NCCN4CCOCC4)c(F)c3)cc(=O)c12 [Compound 42, 5-Amino-6,8-difluoro-2-[3-fluoro-4-(2-morpholinoethylamino)phenyl]-4H-1-benzopyran-4-one] |
|  | 0.36 | CCOC(=O)CNc1ccc(-c2cc(=O)c3c(N)c(F)cc(F)c3o2)cc1F [Compound 44, 5-Amino-6,8-difluoro-2-(4-ethyoxycarbonylmethylamino-3-fluorophenyl)-4H-1-benzopyran-4-one] |
|  | 0.91 | CCOC(=O)CCCCCNc1ccc(-c2cc(=O)c3c(N)c(F)cc(F)c3o2)cc1F [Compound 56, 5-Amino-6,8-difluoro-2-[4-(5-ethoxycarbonylpentylamino)-3-fluorophenyl]-4H-1-benzopyran-4-one] |
